Data set [1] in a line: plasma protein binding rate test, equilibrium dialysis (monkey). The following applies: 1 µM, 6 hours, 37°C. The class given is in vitro ADME, cynomolgus monkey. The procedure:
(§1) Protein binding rates of the compound of the present invention in plasma of rat, monkey and human were determined by an equilibrium dialysis method. Tested compounds of the present invention were the compounds in Examples 6, 8 and 29, and a control drug was Zavegepant.
(§2) 3.1 A dry dialysis membrane was rinsed with ultrapure water for 2-3 times, and then soaked in a phosphate buffer for 1 hour for later use. Polytetrafluoroethylene module was soaked in 20% ethanol for 30 minutes, and then surface moisture was dried with dust-free paper for later use. The pretreated dialysis membrane was assembled into a dialysis plate according to the product specification, and one side (receptor compartment) of an osmotic membrane in each dialysis well was added with 100 µL of receptor fluid (100 mM phosphate buffer solution plus 0.002% Tween 80).
(§3) 3.2 The plasma was put into a centrifuge tube, a working solution of a tested substance was added into the plasma, wherein a final concentration was 1 µM, and the mixture was turned upside down and mixed evenly (this step was carried out in ice bath). 20 µL of drug-containing plasma each was taken, and was respectively transferred to a 96-well sample plate according to two parts in parallel, and stored in a refrigerator at -20°C as a T0 sample.
(§4) 3.3 Another 100 µL of the above drug-containing plasma was transferred to the other side (sample compartment) of the membrane in the dialysis device according to two parts in parallel, and incubated under vibration at a constant temperature of 37°C for 6 hours. After 6 hours of incubation, 20 µL of the plasma was respectively taken out from the receptor compartment and the sample compartment after equilibration to obtain samples B and A. The samples B and A were respectively added with corresponding volumes of corresponding blank plasma or phosphate buffer solution (containing 0.002% Tween 80), so that a volume ratio of the plasma to the buffer solution in each sample well was 1: 1.
(§5) 3.4 All sample wells were added with 250 µL of methanol solution containing an internal standard, mixed evenly and then centrifuged in a centrifuge at 3800 rpm for 10 minutes. […]
(§6) A plasma protein binding rate and a recovery rate of the compound in plasma were calculated by the following formulas: dissociation percentage (%) = CB /CA; [formula] plasma protein binding rate (fb%) = 1−dissociation percentage (%); [formula] recovery rate (%) = (CB+CA)/CT0 [formula] wherein CB was a concentration of the compound in the receptor fluid after equilibrium dialysis; CA was a concentration of the compound in the drug-containing plasma after equilibrium dialysis; and CT0 was an initial concentration of the compound in plasma.
Background: Equilibrium dialysis compares concentrations on both sides of a semipermeable membrane.

Data set [2] can be described thus: plasma protein binding rate test, equilibrium dialysis (rat). The format is in vitro ADME, SD rat. The conditions noted are these: 1 µM, 6 hours, 37°C. As to the method:
as §1, §2, §3, §4, §5, §6

Data set [3] can be described thus: stability test in liver microsomes (rat). The class given is in vitro ADME. The following applies: 60 min. The procedure: (§7) The stability of the compound of the present invention in liver microsomes of rat, monkey and human was determined. Tested compounds of the present invention were the compounds in Examples 6, 8 and 29, and a control drug was Zavegepant.
(§8) 3.2 An appropriate amount of liver microsome solution was transferred into a 1 mL 96-deep-well plate, added with a tested drug liquid (or a probe substrate solution), and pre-incubated in a thermal mixer at 37°C for 5 minutes. Two parts of mixed solutions were taken out from the system and added with 1×PBS to replace NADPH, and the mixed solutions were taken out at 0 and 60 minutes respectively, and added with methanol (containing an internal standard) to terminate the reaction. In the remaining mixed system, each well was added with NADPH to start the reaction. In the tested substance group, mixed solutions were taken out from the system at 0, 5, 15, 30, 45 and 60 minutes, and in the control group, mixed solutions were taken out from the system at 0, 30 and 60 minutes, and the mixed solutions were added methanol (containing an internal standard) to terminate the reaction. All samples of the terminated reaction were mixed evenly and centrifuged in a centrifuge at 3800 rpm for 15 minutes, and the supernatant was taken for LC-MS/MS analysis.
(§9) A peak area was determined by an extracted ion chromatogram. A slope value k was determined by linear regression of a remaining percentage of a parent drug relative to a natural logarithm of an incubation time curve. According to the slope, in-vitro half-life periods (t1/2) were respectively calculated, and in-vitro intrinsic clearance rates (CLint, represented by µL/min/mg protein) were calculated. Calculation formulas were as follows: t1/2 = ln2/k = 0.693/k; and CLint = 0.693/t1/2 /liver microsome protein concentration [formula]
On the technique in general: Microsomes from liver hold many membrane-bound enzymes, among them those of drug oxidation.

The nature of data set [4]: plasma protein binding rate test, equilibrium dialysis (human). The format is in vitro ADME. The conditions noted are these: 1 µM, 6 hours, 37°C. As to the method: as §1, §2, §3, §4, §5, §6
Data set [5] in a line: stability test in liver microsomes (human). The class given is in vitro ADME. The following applies: 60 min. As to the method:
as §7, §8, §9

The nature of data set [6]: stability test in liver microsomes (monkey). The class given is in vitro ADME. The following applies: 60 min. As to the method:
as §7, §8, §9

The target in another data set is T1, CGRP receptor complex (Homo sapiens, UniProt O60894+Q16602).
T1 construct: host or cells: SK-N-MC
The experiment in a line: determination of cell functional antagonism - cAMP determination. The class given is cell-based. The procedure:
1.Experimental principle A CGRP receptor complex was coupled with Gs in G protein, the combination of CGRP and CGRP receptor complex led to Gs activation, and cAMP (3',5'-cyclic adenosine monophosphate) was produced. 2.Experimental purpose The ability of the compound of the present invention to inhibit CGRP-stimulated cAMP formation in SK-N-MC cells was determined. 3.Experimental materials 3.1Experimental cell line: SK-N-MC (neuroepithelioma cells) from National Science and Technology Infrastructure - Biomedical Materials and Cell Resources. 3.2Reagents and consumables
4.Experimental steps • 4.1Cell preparation: The SK-N-MC cells were resuscitated and cultured in advance, and a cell confluence degree should be 70%-80% before use. • 4.2A sample dilution, a tested compound and α-CGRP (human) were prepared. • 4.3Cell seeding and drug effect: The SK-N-MC cells were digested, centrifuged, then resuspended with the sample dilution, and inoculated into a 384-well plate. Each well was added with the α-CGRP (human) and the tested compound respectively, and blown and mixed evenly. The well plate was adhered with a sealing film, and placed on an enzyme-labeled incubator to incubate at 25°C. • 4.4cAMP determination: carried out according to LANCE Ultra cAMP Kit specification Eu-cAMP tracer and ULight-anti-cAMP working solutions were prepared in the dark, respectively added into the well plate, and blown and mixed evenly.

The mark [7] stands for this setting: inhibition of CGRP-stimulated cAMP formation in SK-N-MC cells, read-out: IC50.

Read-outs that look alike come from different tables or passages of the source.

Usually IC50 stands for the concentration that inhibits the measured activity by half.

T1 sequence (Q16602 23-461): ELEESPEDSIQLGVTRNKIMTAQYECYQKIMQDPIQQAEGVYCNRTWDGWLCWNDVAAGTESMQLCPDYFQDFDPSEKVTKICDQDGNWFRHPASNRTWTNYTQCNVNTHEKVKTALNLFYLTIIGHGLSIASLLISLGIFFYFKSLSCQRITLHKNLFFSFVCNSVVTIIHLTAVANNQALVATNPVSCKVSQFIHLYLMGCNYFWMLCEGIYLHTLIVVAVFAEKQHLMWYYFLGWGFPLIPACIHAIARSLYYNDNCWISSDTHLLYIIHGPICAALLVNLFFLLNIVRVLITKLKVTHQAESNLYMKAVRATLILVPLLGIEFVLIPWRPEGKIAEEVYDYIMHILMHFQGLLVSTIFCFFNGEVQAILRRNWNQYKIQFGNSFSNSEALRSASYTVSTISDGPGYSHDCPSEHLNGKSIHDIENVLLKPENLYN
T1 sequence (O60894 27-148): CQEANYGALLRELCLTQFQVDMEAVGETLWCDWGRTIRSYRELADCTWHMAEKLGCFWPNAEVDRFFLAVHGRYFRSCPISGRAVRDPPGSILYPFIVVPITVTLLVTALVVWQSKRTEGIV

For `[2H]C([2H])([2H])N1CCC(N2CCN(C(=O)[C@@H](Cc3cc(C)c4[nH]ncc4c3)NC(=O)N3CCC(c4cc5c([nH]c4=O)SCC5)CC3)CC2)CC1` [Example 29, (R)-N-(3-(7-methyl-1H-indazole-5-yl)-1-(4-(1-(methyl-d3)piperidine-4-yl)piperazine-1-yl)-1-oxopropan-2-yl)-4-(6-oxo-2,3,6,7-tetrahydrothieno[2,3-b]pyridine-5-yl)piperidine-1-formamide], the “fb (%)” value in data set [1] is listed as 56.1%; in data set [2], 64.3%; in data set [4], 50.2%. Moreover, the figures for the “% remaining (60 min)” value in data set [3], in data set [5] and in data set [6] were 105%, 115% and 98.9%, respectively.

Take `Cc1cc(C[C@@H](NC(=O)N2CCC(c3cc4c([nH]c3=O)SCC3CC43)CC2)C(=O)N2CCN(C3CCN(C)CC3)CC2)cc2cn[nH]c12` (stereo partly drawn) [Example 47, N-((R)-3-(7-methyl-1H-indazole-5-yl)-1-(4-(1-methylpiperidine-4-yl)piperazine-1-yl)-1-oxopropan-2-yl)-4-(5-oxo-1,1a,2,4,5,7b-hexahydrocyclopropo[4,5]thiopyrano[2,3-b]pyridine-6-yl)piperidine-1-formamide]: the IC50 on CGRP receptor complex was found to be 0.24 nM.

On to `Cc1cc(C[C@@H](NC(=O)N2CCC(c3cc4c([nH]c3=O)SCC4)CC2)C(=O)N2CCN(C3CCNCC3)CC2)cc2cn[nH]c12` [Example 50, (R)-N-(3-(7-methyl-1H-indazole-5-yl)-1-oxo-1-(4-(piperidine-4-yl)piperazine-1-yl)propan-2-yl)-4-(6-oxo-2,3,6,7-tetrahydrothieno[2,3-b]pyridine-5-yl)piperidine-1-formamide], for which the IC50 on CGRP receptor complex (setting [7]) came to 0.07 nM.

For `Cc1cc(CC(CC(=O)N2CCC(c3cc4c([nH]c3=O)SCCC4)CC2)C(=O)N2CCN(C3CCN(C)CC3)CC2)cc2cn[nH]c12` (stereo not shown) [Example 27, 2-((7-methyl-1H-indazole-5-yl)methyl)-1-(4-(1-methylpiperidine-4-yl)piperazine-1-yl)-4-(4-(7-oxo-3,4,7,8-tetrahydro-2H-thiopyrano[2,3-b]pyridine-6-yl)piperidine-1-yl)butane-1,4-dione], the IC50 on CGRP receptor complex (setting [7]) worked out at 1.24 nM.

Take `Cc1cc(C[C@@H](NC(=O)N2CCC(c3cc4c([nH]c3=O)SCCC4)CC2)C(=O)N2CCN(C3CCNCC3)CC2)cc2cn[nH]c12` [Example 49, (R)-N-(3-(7-methyl-1H-indazole-5-yl)-1-oxo-1-(4-(piperidine-4-yl)piperazine-1-yl)propan-2-yl)-4-(7-oxo-3,4,7,8-tetrahydro-2H-thiopyrano[2,3-b]pyridine-6-yl)piperidine-1-formamide]: the IC50 at CGRP receptor complex (setting [7]) was 0.14 nM.

As for `Cc1cc(C[C@@H](NC(=O)N2CCC(c3cc4c([nH]c3=O)[S+]([O-])CCC4)CC2)C(=O)N2CCN(C3CCN(C)CC3)CC2)cc2cn[nH]c12` (stereo partly drawn) [Example 32, N-((R)-3-(7-methyl-1H-indazole-5-yl)-1-(4-(1-methylpiperidine-4-yl)piperazine-1-yl)-1-oxopropan-2-yl)-4-(1-oxidation-7-oxo-3,4,7,8-tetrahydro-2H-thiopyrano[2,3-b]pyridine-6-yl)pipe ridine-1-formamide], the IC50 at CGRP receptor complex worked out at 0.29 nM.

Turning to `Cc1cc(CC(OC(=O)N2CCC(c3cc4c([nH]c3=O)SCC4)CC2)C(=O)N2CCN(C3CCN(C)CC3)CC2)cc2cn[nH]c12` (stereo not shown) [Example 42, 3-(7-methyl-1H-indazole-5-yl)-1-(4-(1-methylpiperidine-4-yl)piperazine-1-yl)-1-oxopropan-2-yl-4-(6-oxo-2,3,6,7-tetrahydrothieno[2,3-b]pyridine-5-yl)piperidine-1-formate], the IC50 on CGRP receptor complex (setting [7]) was 0.27 nM.

As to `Cc1cc(C[C@@H](NC(=O)N2CCC(c3cc4c([nH]c3=O)SCC4)CC2)C(=O)N2CCC(C)(N3CCCCC3)CC2)cc2cn[nH]c12` [Example 22, (R)-N-(3-(7-methyl-1H-indazole-5-yl)-1-(4'-methyl-[1,4'-bipiperidine]-1'-yl)-1-oxopropan-2-yl)-4-(6-oxo-2,3,6,7-tetrahydrothieno[2,3-b]pyridine-6-yl)piperidine-1-formamide], at CGRP receptor complex, the IC50 is 0.81 nM.

Source of the values: patent EP4703362A1 (Chengdu Sibeibo Pharmaceutical Technology Co., Ltd, priority 2023, dated 2024).
